Read-outs that look alike come from different tables or passages of the source.
Legend:
[1] = test system: HeLa H2B-GFP cells; assay: Chromosome congression analysis; assay type: cell-based, human; conditions: for Congression delay: 10 nM nocodazole or 12 μM proTAME; for Average chromosome congression time / Median chromosome congression time: Fig S4C
Method: HeLa H2B-GFP cells were plated in 35 mm glass-bottom dishes (MatTek) in DMEM+10% FBS at 20% confluence one day prior to the experiment and synchronized by double thymidine block as described above. Drugs were added as follows to a final volume of 3 ml from 2× concentrated preparation in culture medium. DMSO (0.06%), proTAME (3 and 12 μM) or 10 nM Nocodazole were added 8 h after release from the second block, while MG132 (10 μM) was added at 10 h. H2B-GFP was imaged for 4 hrs every 3 min at 40× magnification as described above.

[2] = test system: HeLa H2B-GFP cells; assay: Live cell imaging of mitotic duration and cell fate; assay type: cell-based, human; conditions: for Response of arrested cells to roscovitine: 100 μM roscovitine at 12 h after release; for Mitotic phenotype: synchronized HeLa H2B-GFP
Method: Detailed siRNA transfection and drug treatment schemes are described in supplemental experimental procedures. HeLa H2B-GFP cells were plated in DMEM with 10% FBS at 20% confluence. […] Live cell imaging was performed at 12 minute intervals on a Nikon TE2000E PFS inverted microscope fitted with an incubation chamber maintained at 37° C. and supplied with 5% CO2. Cell division was tracked by manual inspection of movies, and mitotic duration was measured as the time between the first frame of chromosome condensation and the frame of chromosome segregation (anaphase), decondensation (mitotic exit without anaphase) or cell death (chromosomes shrinking to a small bright dot).
The imaging plate was mounted onto a motorized stage (Prior ProScan II) on a Nikon TE2000E PFS inverted microscope fitted with an incubation chamber maintained at 37° C. and supplied with 5% CO2. A 20× Plan Apo 0.75 NA or 40× Plan Fluor 0.75 NA objective lens was used as indicated and images were collected with 2×2 binning. […] TIFF files of each image were exported from Elements and used to build stacks and Quicktime movies with Metamorph imaging software (Molecular Devices). For manual analysis, mitotic duration is counted as the time between the first frame of chromosome condensation and the frame of chromosome segregation (anaphase) or decondensation (mitotic exit in the presence of nocodazole) or cell death (chromosomes shrinking to a small bright dot).
HeLa H2B-GFP cells were plated in a 24-well plate in DMEM 10% FBS at 20% confluence one day prior to experiment and synchronized by double thymidine block as described above. […] Live cell imaging was set up as described above.
HeLa H2B-GFP cells were plated in a 24-well plate in DMEM+10% FBS at 20% confluence one day prior to the experiment and synchronized by double thymidine block as described above. The cells were released from the first thymidine block into 200 μl OptiMem without FBS. Transfection was performed immediately after the first thymidine release. […] The two mixtures were left at room temperature for 5 min before being mixed together and incubated for additional 20 min and then added to the cells to a final volume of 250 μl. 4 h after transfection, 250 μl of DMEM+20% FBS were added to cells.
HeLa H2B-GFP cells were plated in glass-bottom 24-well plates at 20% confluence one day prior to the experiment and synchronized by double thymidine block as described above. […] Cells were treated with 100 nM Hesperadin or DMSO 8 h after release from the second thymidine block and live cell imaging was set up as described above.
HeLa H2B-GFP cells were plated in a 24-well plate in DMEM+10% FBS at 20% confluence one day prior to experiment and synchronized by double thymidine block as synchronized above. […] Live cell imaging was set up as described above.
HeLa H2B-GFP cells were plated in a 24-well plate in DMEM+10% FBS at 20% confluence one day prior to experiment and synchronized by double thymidine block as described above. […] Untreated cells were used as the control. Live cell imaging was set up as described above. […] Alternatively, at 10 h after release from the second block, 10 μM MG132 with or without 25 μg/ml cycloheximide was added to the cells. […] Live cell imaging was set up as described above.
HeLa H2B-GFP cells were plated in a 24-well plate in DMEM+10% FBS at 20% confluence one day prior to experiment and synchronized by double thymidine block as described above. Mad2 siRNA transfection was performed as described above. At 10 h after release from the second block, 10 μM MG132 with or without 25 μg/ml cycloheximide was added to the cells. Live cell imaging was set up as described above. Manual analysis was focused only on cells that entered mitosis after MG132 addition.
Live cell imaging experiments. […] Nocodazole, taxol, proTAME, cyclinal and hesperadin were added to cells at 8 h after release. MG132 was added to cells at 10 h after release to allow mitotic entry.

[3] = proTAME 12 μM, MG132 10 μM, nocodazole 10 nM
[4] = Example 3, Mad2 knockdown, 12 μM proTAME, 300 nM nocodazole
[5] = Example 3, without Mad2 knockdown, 12 μM proTAME, 300 nM nocodazole
[6] = Fig 5A, synchronized HeLa cells, 780 nM
[7] = Fig 5A, synchronized HeLa cells, 3 μM
[8] = Fig 5A, synchronized HeLa cells, 12 μM
[9] = Fig 5B, control siRNA, low proTAME concentration (4 μM)
[10] = Fig 5B, partial Cdc20 knockdown (Cdc20 siRNA), proTAME 4 μM
[11] = Fig 6A, MAD2 siRNA, 12 μM proTAME, 300 nM nocodazole
[12] = Fig 6C, compounds 8 h after release, 12 μM proTAME, 300 nM nocodazole, 150 nM taxol, 100 nM hesperadin
[13] = Fig 8A, 12 μM proTAME, 300 nM nocodazole or 150 nM taxol, ± 25 μg/ml cycloheximide 4 h later
[14] = Fig S5G, after washout from nocodazole-induced arrest, release in proTAME 12 μM ± hesperadin 100 nM
[15] = double-thymidine synchronized cells, Mad2 knockdown
[16] = double-thymidine synchronized cells, without Mad2 knockdown
[17] = Fig 6A, control siRNA, 12 μM proTAME, 300 nM nocodazole

COC(=O)[C@H](CCCN/C(=N\C(=O)OCOC(=O)Cc1ccccc1)NC(=O)OCOC(=O)Cc1ccccc1)NS(=O)(=O)c1ccc(C)cc1 [proTAME]
Congression delay [1]: 6 min
Delay in chromosome congression ([1]; 3 μM proTAME or 10 μM MG132): caused no delay in chromosome congression
Time to achieve metaphase, average ([1]; Example 2, 12 (μM) proTAME, 15 minutes for DMSO): 40 min
Average chromosome congression time ([1]; proTAME 3 μM): 21.7 min
Median chromosome congression time ([1]; proTAME 3 μM): 21 min
Average chromosome congression time [1, 3]: 26.0 min
Median chromosome congression time [1, 3]: 24 min
Average mitotic duration [2]: 1512.4 min
Median mitotic duration [2]: 1488 min
Mitotic duration ([2]; 3 μM): 5 h
Duration of mitotic arrest ([2]; 12 μM proTAME): over 28 h
Extension of mitotic duration ([2]; 12 μM, SAC inactivated by Mad2 depletion): 72 min
Extension of mitotic duration ([2]; 12 μM, intact SAC): 1380 min
Response of arrested cells to roscovitine [2]: induces rapid mitotic exit
Mitotic duration ([2]; Cdc20 levels reduced by 50% by siRNA, 4 μM): 19.4 h
Duration of mitotic arrest ([2]; Example 2, 12 μM proTAME, DIC imaging): over 10 hours
Duration of metaphase arrest ([2]; Example 2, 12 (μM) proTAME, fluorescence imaging): more than 8 hours
Mitotic duration ([2]; Example 2, HeLa H2B-GFP fluorescence imaging, 3 μM proTAME, proAAME control): 2 h
Median mitotic duration [2, 4]: 120 min
Median mitotic duration [2, 5]: 420 min
Average mitotic duration [2, 6]: 165.4 min
Median mitotic duration [2, 6]: 156 min
Average mitotic duration [2, 7]: 444.6 min
Median mitotic duration [2, 7]: 348 min
Average mitotic duration [2, 8]: 1640.5 min
Median mitotic duration [2, 8]: 1680 min
Average mitotic duration [2, 9]: 496.5 min
Median mitotic duration [2, 9]: 288 min
Average mitotic duration [2, 10]: 1235.3 min
Median mitotic duration [2, 10]: 1170 min
Average mitotic duration [2, 11]: 121.7 min
Median mitotic duration [2, 11]: 84 min
Average mitotic duration [2, 12]: 1329.3 min
Median mitotic duration [2, 12]: 1272 min
Average mitotic duration [2, 13]: 1052.0 min
Median mitotic duration [2, 13]: 972 min
Average mitotic duration [2, 14]: 1516.4 min
Median mitotic duration [2, 14]: 1410 min
Effect on mitotic exit ([2]; Mad2-knockdown cells, proTAME 12 μM, cyclinal 100 μM): only transiently delayed mitotic exit
Median mitotic duration ([2]; Mad2 knockdown cells (12 min without proTAME)): 84 min
Mitotic duration ([2]; control-transfected cells, 4 μM): 4.8 h
Duration of mitotic arrest [2, 15]: 1.4 h
Duration of mitotic arrest [2, 16]: 24.6 h
Duration of mitotic arrest ([2]; in the absence of Mad2): approximately 2 hours
Effect on mitotic exit ([2]; in the presence of hesperadin): only transiently delayed mitotic exit
Mitotic phenotype ([2]; 780 nM or 3 μM): remained in metaphase for up to several hours, but then proceeded through a normal anaphase
Mitotic phenotype ([2]; 12 μM): arrested in metaphase and subsequently died
Median mitotic arrest ([2]; synchronized, drugs 10 hrs after release, proTAME 1 μM, MG132 0.5 μM): 216 min
Median mitotic delay/arrest ([2]; synchronized, drugs 10 hrs after release, proTAME 3 μM, low-dose MG132): 438 min
Median mitotic duration ([2]; unsynchronized HeLa H2B-GFP, taxol 10 nM, proTAME 3 μM, control 60 min): 132 min

COC(=O)Nc1nc2ccc(C(=O)c3cccs3)cc2[nH]1 [Nocodazole, reference compound]
Congression delay [1]: 6 min
Average chromosome congression time [1, 3]: 26.2 min
Median chromosome congression time [1, 3]: 24 min
Prolongation of mitosis ([2]; 10 nM nocodazole): 20 min
Extension of mitotic duration ([2]; 10 nM, SAC-proficient cells): 20 min
Response of arrested cells to roscovitine [2]: induced instantaneous mitotic exit
Median mitotic duration [2, 4]: 30 min
Median mitotic duration [2, 5]: 1230 min
Average mitotic duration [2, 11]: 98.2 min
Median mitotic duration [2, 11]: 36 min
Average mitotic duration [2, 17]: 1680.1 min
Median mitotic duration [2, 17]: 1812 min
Average mitotic duration [2, 12]: 1851.8 min
Median mitotic duration [2, 12]: 2094 min
Average mitotic duration [2, 13]: 1777.0 min
Median mitotic duration [2, 13]: 2160 min
Duration of mitotic arrest [2, 15]: 0.6 h
Duration of mitotic arrest [2, 16]: 30 h
